Laboratory results from patent publication US20260364138A1, “ENRICHED ASPARAGUS RACEMOSUS ROOT COMPOSITION AND PROCESS FOR PREPARATION THEREOF” (LAILA NUTRA PRIVATE LIMITED, priority 2023, published 2026).

Experiments:
[1] = tested on: Cyclophosphamide-induced primary ovarian insufficiency in Sprague Dawley rats; test: Cyclophosphamide-induced primary ovarian insufficiency in female Sprague Dawley rats, total follicular count; settings: rat, in vivo
Experimental: Evaluation of Asparagus racemosus enriched extract compositions supplementation on total follicular count of female Sprague Dawley rats: Ovarian follicles contain oocytes and surrounded by granulosa cells. Four different types of follicles are observed in ovaries based on their development stages: primordial, primary, secondary, and tertiary (antral). The number of primordial follicles, which is the true ovarian reserve, is determined in the fetus and declines throughout life. However, the primordial follicles cannot be visualized by ultrasound due to their small size (<0.05 mm diameter). The antral or Graafian follicles are more easily identifiable by ultrasound when they reach 2 mm in diameter. It is recommended that a follicular count needs to be performed in the early follicular phase of the menstrual cycle. However, considering the intracycle fluctuation of ovarian reserve, a follicular count may be performed at any point in the menstrual cycle. […]
Example 28: In-vivo efficacy of AR-1 and Comp-1 in mitigating Cyclophosphamide-induced primary ovarian insufficiency in Sprague Dawley rats. […] Twenty randomly selected fields were analysed for primordial, primary, antral, […], and atretic follicles, and the average of total number of follicles present in each tissue section was calculated.

[2] = tested on: Letrozole-induced PCOS in female Sprague Dawley rats; test: Oral glucose tolerance test (OGTT) in letrozole-induced PCOS rats; format: in vivo; settings: mean ± SD, n = 7, 20 mg/kg daily days 22-48 after letrozole induction, letrozole group 1 mg/kg without test item, day 49
Excerpt: Evaluation of Asparagus racemosus synergistic enriched extract compositions (comp-26, comp-27, comp-28 and 90% aqueous ethanol extract (AR-2) supplementation in letrozole-induced PCOS in female Sprague Dawley rats: Oral glucose tolerance test (OGTT): OGTT measures circulatory glucose levels following glucose ingestion, and this test is widely used as an indicator of insulin resistance. PCOS is known to cause metabolic dysfunctions, including insulin resistance. Letrozole-induced rats show impaired glucose tolerance and increased blood glucose in circulation, which closely mimics the clinical features of glucose intolerance or insulin resistance in PCOS.
Area Under the Curve (AUC) was calculated using serum glucose concentration Vs. time (in min). The AUC value was increased in letrozole-induced (G2) rats when compared with the Vehicle control (G1) rats, indicating impaired glucose tolerance or increased insulin resistance.
(§1) Following a 7-day acclimatization period, female Sprague Dawley rats (age: 10-12 weeks, body weight 250-300 g) were randomly assigned to six groups (n=7): vehicle control (G1), Letrozole (G2; 1 mg/kg), AR-2 (G3; 20 mg/kg), Comp-26 (G4; 20 mg/kg), Comp-27 (G5; 20 mg/kg), and Comp-28 (G6; 20 mg/kg).
The study was performed in two phases i.e., the induction and supplementation phases. […]

[3] = tested on: Letrozole-induced PCOS in female Sprague Dawley rats; test: Serum testosterone in letrozole-induced PCOS rats; format: in vivo; settings: mean ± SD, n = 7; 20 mg/kg daily after letrozole induction; letrozole group 1 mg/kg; day 48
Experimental: as §1
(§2) The study was performed in two phases i.e., the induction and supplementation phases. In the induction phase, all the animals, except for G1, were gavaged with letrozole to induce PCOS for 21 days. In the supplementation phase (from days 22 to 48), all rats were supplemented once daily with either the vehicle or one of the test items. An oral glucose tolerance test (OGTT) was performed on day 49 in overnight fasted rats. Blood samples were collected on day 48. The serum was separated by centrifuging the blood samples at 3200×g for 15 minutes at 4 °C and stored at −80 °C in aliquots for biomarker analysis. On day 50, all rats were euthanized using CO2 asphyxiation, and their ovaries were collected. The ovaries were fixed in 10% normal buffered formalin for histopathology examination. The fixed tissues were paraffin-embedded, sectioned (5-7 μm) using a microtome, and stained with hematoxylin-eosin following the standard protocols. The stained tissue sections were examined at 10× magnification under a light microscope (Carl Zeiss, Germany).

[4] = tested on: Letrozole-induced PCOS in female Sprague Dawley rats; test: Serum 17β-estradiol in letrozole-induced PCOS rats; format: in vivo; settings: mean ± SD, n = 7; 20 mg/kg daily after letrozole induction; letrozole group 1 mg/kg; day 48
Experimental: as §1, §2

[5] = tested on: estrogen receptor alpha phosphorylated at Serine 118 position (pER-α); test: Evaluation of estrogen-receptor alpha (ER-α) phosphorylation by Western blot assay (normalized pER-α expression) in MCF-7 cells; format: cell-based, Human; settings: 0.2 μg/mL, MCF-7, 4 h; for pER-α expression (normalized): Table 3 (vehicle control 0.28); for activation at 0.2 µg/mL: Homo sapiens, MCF7, read-out: % increase of pER-α (from vehicle control)
Experimental: The four compounds of Asparagus racemosus root Shatavarin I, dehydroshatavarin I, shatavarin IV, and shatavarin IX, and their combinations were evaluated for their ability to enhance the pER-α (estrogen receptor alpha phosphorylated at Serine 118 position) expression in a human breast tumor cell line, MCF-7, and the results are presented in Table 3. pER-α represents the active form of the hormone receptor.
Human MCF-7 cells (ATCC Cat #HTB-22; 5×10^5 cells/well in 3 mL) were seeded in 6-well cell culture plates and maintained in DMEM medium containing 10% FBS at 37 °C in a humidified atmosphere of 5% CO2. After 48 hours of seeding, cells were washed twice with serum-free DMEM medium (without phenol red) and maintained in the same media for another 24 hours. Cells were treated with different test samples (0.2 μg/mL) in serum-free DMEM medium and incubated for 4 hours at 37 °C in a CO2 incubator. The untreated cells served as a vehicle control.
Western blot: After the incubation, cell culture plates were placed on an ice tray and washed twice with cold 1×PBS. Eighty microliters of lysis buffer (10 mM Tris-HCl pH 7.4, 150 mM NaCl, 1 mM EDTA, 1 mM [COMPOUND LEFT OUT], 10 μg/mL Aprotinin, 10 μg/mL Leupeptin, 1% Triton X-100, 1 mM NaF, 1 mM Na3VO4, 0.5% Sodium deoxycholate, and 1 μM Pepstatin) was added to each well and sonicated for 30 seconds. Following homogenization, samples were centrifuged at 16128×g for 10 minutes at 4 °C to sediment unbroken cells and nuclei. Supernatant was collected, and protein was quantified using a Pierce BCA protein assay kit (Thermo Scientific Cat #23225). SDS-PAGE was performed for the protein samples, and resolved proteins were transferred onto nitrocellulose membrane using the wet blotting method. Briefly, 10 μg of protein was loaded onto acrylamide gel (7.5% resolving) and ran at 100V for approximately 1 hour 40 minutes. At the end of the run, proteins were transferred to the nitrocellulose membrane by placing transfer system at 4 °C chamber (100V for 2 hours). After the transfer, the membrane was washed in 0.1M Tris-buffered saline containing 0.05% Tween20 (TBST) and blocked in Superblock blocking buffer (Thermo Scientific Cat #37535) with constant agitation for 30 minutes. The membrane was incubated with primary antibodies recognizing phospho-ER-α (Phosphorylation site: Ser118) in TBST for 16 hours at 4 °C with agitation. The membrane was washed three times and incubated with peroxidase affiniPure goat anti-rabbit secondary antibody (Jackson ImmunoResearch Cat #111-035-045; 1:10000 dilution) for 1 hour at room temperature with agitation, followed by three times of washing in TBST for 5 minutes each. Immunoreactive bands were detected using a chemiluminescent substrate (Thermo Scientific Cat #34080) and images were captured using Bio-Rad Molecular imager (Model: ChemiDOC MP). Membrane was stripped of the phospho-ER-α antibody and re-probed with […] antibody (Sigma Chemical Co., USA; 1:10000 dilution) by incubating at room temperature for 2 hours and images were captured. The intensities of phospho-ER-α and actin protein bands were calculated using Carestream MI software and normalized. The normalized pER-α expression (in arbitrary units) was measured using the following formula: […]

Molecule	pER-α expression (normalized) [5]	activation at 0.2 µg/mL ([5]; markers, Table 3)	also measured
O=P1(N(CCCl)CCCl)NCCCO1 (stereo not shown) [Cyclophosphamide]	–	–	Average total follicular count [1]: 5.63 per section
N#Cc1ccc(C(c2ccc(C#N)cc2)n2cncn2)cc1 [Letrozole]	–	–	AUC (serum glucose, OGTT) [2]: 21030 ± 4007 mg/dL/min; AUC (serum glucose, OGTT) ([2]; listed as letrozole): increased; Testosterone concentration (serum) [3]: 3.18 ± 1.16 pg/mL; 17β-Estradiol concentration (serum) [4]: 32.97 ± 13.89 pg/mL
CC1CCC2(OC1)OC1CC3C4CCC5CC(OC6OC(CO)C(OC7OC(C)C(O)C(O)C7O)C(O)C6OC6OC(CO)C(O)C(O)C6O)CCC5(C)C4CCC3(C)C1C2C (stereo not shown) [Shatavarin IV]	0.40 arbitrary units	42.9%	–
CC1CCC2(OC1)OC1CC3C4CCC5CC(OC6OC(CO)C(OC7OC(CO)C(O)C(O)C7O)C(O)C6OC6OC(CO)C(O)C(O)C6O)CCC5(C)C4CCC3(C)C1C2C (stereo not shown) [Shatavarin IX]	0.38 arbitrary units	35.7%	–
CC(CCC1(O)OC2CC3C4CCC5CC(OC6OC(CO)C(OC7OC(C)C(O)C(O)C7O)C(O)C6OC6OC(CO)C(O)C(O)C6O)CCC5(C)C4CCC3(C)C2C1C)COC1OC(CO)C(O)C(O)C1O (stereo not shown) [Shatavarin I]	0.34 arbitrary units	21.4%	–
dehydroshatavarin I	0.45 arbitrary units	–	% increase of pER-α (from vehicle control) ([5]; markers, Table 3): 60.71%
